According to patent US7498292B2, “Combinatorial libraries of autoinducer analogs, autoinducer agonists and antagonists, and methods of use thereof” (The Research Foundation of State University of New York, priority 2002, dated 2009):

Key:
Assay type in all cases: cell-based, P. aeruginosa
LasR = molecular target: T1, LasR (Pseudomonas aeruginosa, UniProt P25084); experiment: lasI-gfp reporter antagonist (competition against AI1) assay, PAO-JP2 (plasI-LVAgfp); settings: 100-fold excess concentration over AI1 (1 μM AI1)
T1 construct: endogenous in cells; host or cells: P. aeruginosa PAO-JP2 (lasI, rhlI) harboring plasI-LVAgfp
Procedure: P. aeruginosa strain PAO-JP2 (lasI, rhlI) (Rahme et al., Science 268:1899-1902 (1995), which is hereby incorporated by reference in its entirety) harboring plasI-LVAgfp (Pearson et al., Proc. Natl Acad. Sci. USA 91:197-201 (1994), which is hereby incorporated by reference in its entirety) was grown at 37° C. in LB with 300 μg/ml carbenicillin. For agonist assays, an overnight culture was diluted to an OD600 of 0.1 and transferred to wells of a 96-well plate on which test compounds had previously been added and dried. The final concentration of each analog tested was roughly 400 μM, although this is an overestimate due to purity issues. Cells were then incubated for 6 hours at 37° C. with vigorous shaking. GFP expression was detected with a Molecular Imager (BioRad) (488 nm excitation and 695 nm bandpass filter) and quantified with ImageQuant software. The OD600 of cultures was determined to normalize GFP expression to cell density.
The methods were the same as described in Example 2 (GFP Reporter Assay), except that 1 μM AI1 was added to each well in combination with the library compound. The fluorescence/OD600 of each compound competing against AI1 was reported relative to the fluorescence/OD600 of the positive control of AI1 alone, which was set to 1. When strain PAO-JP2 (prhlI-LVAgfp) was used, the positive control was 1 μM AI1 and 10 μM AI2. Eight compounds that inhibited reporter gene expression by greater than 50% were identified (see, e.g., FIG. 6).
(§1) Reporter strains were grown overnight in LB plus 300 μg/ml carbenicillin at 37° C. and diluted to an OD600 of 0.1. Following an incubation of 1 hour, 200 μl of cell culture was added to individual wells of a 96 well plate containing appropriate amount of test compound(s). Plates were incubated for 6 hours and then scanned for fluorescence emission with a Molecular Imager (488 nm excitation and 695 nm bandpass filter). Fluorescence was quantified with ImageQuant software.

RhlR = experiment: rhlI-gfp reporter antagonist assay, PAO-JP2 (prhlI-LVAgfp); settings: 50 μM compound, competing against 1 μM AI1 and 10 μM AI2
Procedure: Each compound in the library was tested for antagonist activity using the same reporter strain, PAO-JP2 (plasI-LVAgfp) (de Kievit et al., Appl. Environ. Microbiol. 67:865-1873 (2001), which is hereby incorporated by reference in its entirety) to find compounds that could compete against AI1 and reduce GFP expression. The methods were the same as described in Example 2 (GFP Reporter Assay), except that 1 μM AI1 was added to each well in combination with the library compound. The fluorescence/OD600 of each compound competing against AI1 was reported relative to the fluorescence/OD600 of the positive control of AI1 alone, which was set to 1. When strain PAO-JP2 (prhlI-LVAgfp) was used, the positive control was 1 μM AI1 and 10 μM AI2.
3- oxo-C12-D10 was synthesized in solution phase, where the natural side chain was coupled with D10 and purified by chromatography. To determine if the same structural motif can be applied to inhibition of the RhlR-AI2 interaction, C4-D10 was also synthesized. Assays were performed with both the lasI-gfp reporter PAO-JP2 (plasI-LVAgfp) and an RhlR-AI2 controlled rhlI-gfp reporter, PAO-JP2 (prhlI-LVAgfp) (FIGS. 10A-C) (de Kievit et al., Appl. Environ. Microbiol. 67:865-1873 (2001), which is hereby incorporated by reference in its entirety).
as §1
Next the ability of 2 and 3 to inhibit the rhlI-gfp reporter strain PAO-JP2 (prhlI-LVAgfp) was tested, since this expression is also AI1-dependent.

[1] = test system: PAO-JP2 (pTdK-GFP) biofilm; experiment: static biofilm assay, PAO-JP2 (pTdK-GFP); settings: PAO-JP2 (pTdK-GFP) with exogenous AIs, 24-hour static assay
Procedure: Compound 3 was tested for its effect on biofilm development in a 24-hour assay that looks at the early stages of biofilm formation. […] Cultures were grown at 37° C. with shaking for 30 minutes, and then allowed to sit at 37° C. for an additional 23.5 hours. Coverslips were then rinsed and placed on slides for visualization using an MRC1024 Laser Scanning Microscope (BioRad) with a Nikon Fluor-60X oil emersion objective lens (NA=1.4), 488 nm Argon Laser and OG515 filter.

lac promoter = experiment: GFP expression from lac promoter, PAO-JP2 (pTdK-GFP) (specificity control); settings: lasI promoter replaced with a lac promoter

T1 sequence (P25084 whole entry): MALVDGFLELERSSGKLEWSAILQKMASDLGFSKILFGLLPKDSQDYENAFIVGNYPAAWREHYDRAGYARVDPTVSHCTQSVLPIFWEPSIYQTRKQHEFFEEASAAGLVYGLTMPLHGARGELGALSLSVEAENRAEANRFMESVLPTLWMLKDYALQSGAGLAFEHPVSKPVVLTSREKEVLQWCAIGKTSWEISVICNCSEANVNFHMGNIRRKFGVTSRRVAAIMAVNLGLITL

SMILES: CCCCCCCCCC(=O)CC(=O)NC1CCCCC1=O (racemic) [Compound 3, N-(2-oxocyclohexyl)-3-oxododecanamide]
- inhibition of GFP expression (lasI-gfp) (LasR): 35%
- inhibition of GFP expression (rhlI-gfp) (RhlR): greater than 60%
- effect on biofilm formation [1]: completely inhibited
- inhibition of GFP expression from lac promoter (lac promoter): inability to inhibit GFP expression
